Laboratory results published in ChEMBL document CHEMBL5241075, “Advancement of chimeric hybrid drugs to cure malaria infection: An overview with special emphasis on endoperoxide pharmacophores” (Eur J Med Chem, 2021).
In brackets after ≈: the same amount, converted by molar mass. One block for each molecule: values may come before it.

Legend:
[1] = Inhibition of Plasmodium falciparum falcipain-2
Plasmodium falciparum [2] = assay: Antiplasmodial activity against Plasmodium falciparum W2; assay type: functional, organism-based
Plasmodium falciparum [3] = assay: Antiplasmodial activity against Plasmodium falciparum 3D7; assay type: functional, organism-based
Plasmodium falciparum [4] = assay: Antimalarial activity against chloroquine sensitive Plasmodium falciparum D6; assay type: functional, organism-based
Plasmodium falciparum [5] = assay: Antimalarial activity against erythrocytic stage chloroquine sensitive Plasmodium falciparum W2 infected in mouse assessed as reduction in parasitemia at 32 mg/kg/day, po qd measured after 4 days by Giemsa staining based analysis relative to control; assay type: functional; design: scale not given: the % may be the effect or the level left; conditions: time 4 day
Plasmodium falciparum [6] = assay: Antiplasmodial activity against chloroquine resistant Plasmodium falciparum by HRP2 ELISA analysis; assay type: functional, organism-based
Plasmodium falciparum [7] = assay: Antimalarial activity against chloroquine resistant Plasmodium falciparum W2; assay type: functional, organism-based
Plasmodium falciparum [8] = assay: Antimalarial activity against chloroquine resistant Plasmodium falciparum FcM29 Cameron; assay type: functional, organism-based
Plasmodium falciparum [9] = assay: Antimalarial activity against chloroquine resistant Plasmodium falciparum PaloAlto; assay type: functional, organism-based
Plasmodium falciparum [10] = assay: Antimalarial activity against chloroquine resistant Plasmodium falciparum FcB1 Colombia; assay type: functional, organism-based
Plasmodium falciparum [11] = assay: Antimalarial activity against erythrocytic stage chloroquine sensitive Plasmodium falciparum 3D7 infected in mouse assessed as reduction in parasitemia at 63 mg/kg/day, po qd measured after 4 days by Giemsa staining based analysis relative to control; assay type: functional; design: scale not given: the % may be the effect or the level left; conditions: time 4 day
Plasmodium falciparum [12] = assay: Antimalarial activity against erythrocytic stage chloroquine sensitive Plasmodium falciparum W2 infected in mouse assessed as reduction in parasitemia at 63 mg/kg/day, po qd measured after 4 days by Giemsa staining based analysis; assay type: functional; design: scale not given: the % may be the effect or the level left; conditions: time 4 day
[13] = tested on: Plasmodium vinckei petteri; assay: Antimalarial activity against chloroquine sensitive Plasmodium vinckei petteri infected in po dosed swiss mouse assessed as reduction in parasitemia; assay type: functional
Plasmodium falciparum [14] = assay: Antimalarial activity against chloroquine sensitive Plasmodium falciparum F32; assay type: functional, organism-based
Plasmodium falciparum [15] = assay: Antimalarial activity against chloroquine resistant Plasmodium falciparum FcR3 Gambia; assay type: functional, organism-based
Plasmodium vinckei = assay: Antimalarial activity against chloroquine resistant Plasmodium vinckei infected in po dosed swiss mouse assessed as reduction in parasitemia; assay type: functional
Plasmodium falciparum [16] = assay: Antimalarial activity against erythrocytic stage chloroquine sensitive Plasmodium falciparum W2 infected in mouse assessed as reduction in parasitemia at 54 mg/kg/day, po qd measured after 4 days by Giemsa staining based analysis relative to control; assay type: functional; design: scale not given: the % may be the effect or the level left; conditions: time 4 day
Plasmodium falciparum [17] = assay: Antimalarial activity against erythrocytic stage chloroquine sensitive Plasmodium falciparum 3D7 infected in mouse assessed as reduction in parasitemia at 4 mg/kg/day, po qd measured after 4 days by Giemsa staining based analysis relative to control; assay type: functional; design: scale not given: the % may be the effect or the level left; conditions: time 4 day
Plasmodium falciparum [18] = assay: Antiplasmodial activity against Plasmodium falciparum NF54; assay type: functional, organism-based
Plasmodium falciparum [19] = assay: Antimalarial activity against erythrocytic stage chloroquine sensitive Plasmodium falciparum W2 infected in mouse assessed as reduction in parasitemia at 4 mg/kg/day, po qd measured after 4 days by Giemsa staining based analysis relative to control; assay type: functional; design: scale not given: the % may be the effect or the level left; conditions: time 4 day
Plasmodium falciparum [20] = assay: Antiplasmodial activity against Plasmodium falciparum gametocytes assessed as inhibition of gametocyte activation by [3H]hypoxanthine incorporation assay; assay type: functional, organism-based
Plasmodium falciparum [21] = assay: Selectivity ratio of IC50 for antiplasmodial activity against Plasmodium falciparum W2 to IC50 for antiplasmodial activity against Plasmodium falciparum D6; assay type: functional
Plasmodium falciparum [22] = assay: Antiplasmodial activity against Plasmodium falciparum D6; assay type: functional, organism-based
Plasmodium berghei [23] = assay: Antiplasmodial activity against Plasmodium berghei N infected in po dosed mouse assessed as reduction in parasitemia; assay type: functional
Plasmodium berghei [24] = assay: Antiplasmodial activity against Plasmodium berghei N infected in sc dosed mouse assessed as reduction in parasitemia; assay type: functional
Plasmodium berghei [25] = assay: Antiplasmodial activity against Plasmodium berghei infected in mouse assessed as reduction in parasitemia at 35 microg/kg, sc measured after 4 days post treatment relative to control; assay type: functional; design: scale not given: the % may be the effect or the level left; conditions: dose 35 µg/kg, time 4 day
Plasmodium falciparum [26] = assay: Antiplasmodial activity against Plasmodium falciparum DD2; assay type: functional, organism-based
Plasmodium berghei [27] = assay: Antiplasmodial activity against Plasmodium berghei infected in mouse assessed as reduction in parasitemia by measuring survival rate at 35 microg/kg, sc measured after 41 days of post infection relative to control; assay type: functional; conditions: 984 h, dose 35 µg/kg, time 41 day
Plasmodium falciparum [28] = assay: Antiplasmodial activity against Plasmodium falciparum K1; assay type: functional, organism-based; conditions: Plasmodium falciparum, K1; read-out: EC50
Plasmodium berghei [29] = assay: Antiplasmodial activity against Plasmodium berghei infected in mouse assessed as reduction in parasitemia at 65 mg/kg, sc measured after 4 days post treatment relative to control; assay type: functional; design: scale not given: the % may be the effect or the level left; conditions: time 4 day
Plasmodium falciparum [30] = assay: Antimalarial activity against erythrocytic stage chloroquine sensitive Plasmodium falciparum W2 infected in mouse assessed as reduction in parasitemia at 43 mg/kg/day, po qd measured after 4 days by Giemsa staining based analysis relative to control; assay type: functional; design: scale not given: the % may be the effect or the level left; conditions: time 4 day
[31] = tested on: Plasmodium yoelii nigeriensis; assay: Antiplasmodial activity against Plasmodium yoelii nigeriensis infected in sc dosed mouse assessed as reduction in parasitemia; assay type: functional; conditions: for ED50 / ED90: Plasmodium yoelii
Plasmodium falciparum [32] = assay: Antiplasmodial activity against Plasmodium falciparum TM91C235; assay type: functional, organism-based
Hemozoin = assay: Inhibition of Beta-hematin in Plasmodium falciparum
Plasmodium falciparum [33] = assay: Antimalarial activity against erythrocytic stage chloroquine sensitive Plasmodium falciparum 3D7 infected in mouse assessed as reduction in parasitemia at 15 mg/kg/day, po qd measured after 4 days by Giemsa staining based analysis relative to control; assay type: functional; design: scale not given: the % may be the effect or the level left; conditions: time 4 day
Plasmodium falciparum [34] = assay: Antimalarial activity against erythrocytic stage chloroquine sensitive Plasmodium falciparum 3D7 infected in mouse assessed as reduction in parasitemia at 43 mg/kg/day, po qd measured after 4 days by Giemsa staining based analysis relative to control; assay type: functional; design: scale not given: the % may be the effect or the level left; conditions: time 4 day
HeLa = assay: Antiproliferative activity against human HeLa cells assessed as cell growth inhibition; assay type: functional, cell-based; conditions: Homo sapiens, HeLa
Plasmodium yoelii = assay: Antimalarial activity against Plasmodium yoelii infected in mouse assessed as reduction in parasitemia; assay type: functional
Plasmodium berghei [35] = assay: Antimalarial activity against Plasmodium berghei infected in mouse assessed as reduction in parasitemia; assay type: functional
[36] = Lipophilicity, logP of compound; assay type: physicochemical; conditions: octanol/water
Plasmodium falciparum [37] = assay: Antiplasmodial activity against Plasmodium falciparum; assay type: functional, organism-based
[38] = tested on: Plasmodium yoelii nigeriensis; assay: Antiplasmodial activity against Plasmodium yoelii nigeriensis infected in po dosed mouse assessed as reduction in parasitemia; assay type: functional
Plasmodium falciparum [39] = assay: Antiplasmodial activity against Plasmodium falciparum D10; assay type: functional, organism-based; conditions: Plasmodium falciparum, D10

Structure (SMILES): CC(C)CN(NC(=O)C1CCC2(CC1)OOC1(OO2)C2CC3CC(C2)CC1C3)c1nc(C#N)ncc1Cl (stereo not given)
- IC50 [1]: 3.4 nM
- IC50 (Plasmodium falciparum [2]): 9.8 nM
- IC50 (Plasmodium falciparum [3]): 9.8 nM

Structure (SMILES): CC1(C)COC(C2CCC(NC3CCC(Nc4ccnc5cc(Cl)ccc45)CC3)CC2)OO1 (stereo not given)
- IC50 (Plasmodium falciparum [4]): 7 nM
- Activity (Plasmodium falciparum [5]): 77%
- IC50 (Plasmodium falciparum [6]): 19.8 nM
- IC90 (Plasmodium falciparum [6]): 29.3 nM
- IC99 (Plasmodium falciparum [6]): 0.0448 µM
- MIC (Plasmodium falciparum [6]): 0.0472 µM (≈ 0.0224 µg/mL)
- IC50 (Plasmodium falciparum [7]): 15 nM
- IC50 (Plasmodium falciparum [8]): 10 nM
- IC50 (Plasmodium falciparum [9]): 15 nM
- IC50 (Plasmodium falciparum [10]): 24 nM
- Activity (Plasmodium falciparum [11]): 100%
- Activity (Plasmodium falciparum [12]): 96%
- ED100 [13]: 32 mg/kg/day
- IC50 (Plasmodium falciparum [14]): 13 nM
- IC50 (Plasmodium falciparum [15]): 12 nM
- ED100 (Plasmodium vinckei): 30 mg/kg/day

Structure (SMILES): C[C@H]1[C@H](OC(=O)CCC(=O)O)O[C@@H]2O[C@@]3(C)CC[C@H]4[C@H](C)CC[C@@H]1[C@@]24OO3 [ARTESUNATE]
- Activity (Plasmodium falciparum [16]): 100%
- Activity (Plasmodium falciparum [17]): 28%
- IC50 (Plasmodium falciparum [6]): 2.34 nM
- IC90 (Plasmodium falciparum [6]): 6.46 nM
- IC99 (Plasmodium falciparum [6]): 0.0195 µM
- IC50 (Plasmodium falciparum [18]): < 5.2 nM
- ED100 [13]: 32 mg/kg/day
- ED100 (Plasmodium vinckei): 100 mg/kg/day
- Activity (Plasmodium falciparum [19]): 89%
- IC50 (Plasmodium falciparum [20]): 300000 nM

- IC50 (Plasmodium falciparum [22]): 580 nM
- IC50 (Plasmodium falciparum [2]): 730 nM
Structure (SMILES): Cc1cccc(C)c1Nc1nc(OCc2cn(CCCNc3ccnc4cc(Cl)ccc34)nn2)nc(N(C)C)n1
- Ratio IC50 (Plasmodium falciparum [21]): >11.1

Structure (SMILES): Cc1ccc(C2O[C@@H]3O[C@]4(C)CC[C@H]5[C@H](C)CC[C@@H]([C@H]2C)[C@@]35OO4)o1 (stereo not given in full)
- ED50 (Plasmodium berghei [23]): 15.5 mg/kg
- IC50 (Plasmodium falciparum [18]): 5.2 nM
- ED50 (Plasmodium berghei [24]): 0.9 mg/kg

Structure (SMILES): C[C@H]1[C@H](OC(=O)CCC(=O)CCNc2ccnc3cc(Cl)ccc23)O[C@@H]2O[C@]3(C)CC[C@H]4[C@H](C)CC[C@@H]1[C@@]24OO3
- Activity (Plasmodium berghei [25]): 95.2%
- EC50 (Plasmodium falciparum [26]): 2.3 nM
- survival at 0.035 mg/kg (Plasmodium berghei [27]): 80%
- EC50 (Plasmodium falciparum [28]): 1.7 nM
- Activity (Plasmodium berghei [29]): >99%
- EC50 (Plasmodium falciparum [3]; read-out: EC50): 4.5 nM

Structure (SMILES): CCN(CC)CCCC(C)Nc1ccnc2cc(Cl)ccc12 (stereo not given) [CHLOROQUINE]
- Activity (Plasmodium falciparum [30]): 15%
- CD50 [31]: 7 mg/kg/day
- CD90 [31]: 23 mg/kg/day
- ED50 [31]: 5 mg/kg/day
- ED90 [31]: 23 mg/kg/day
- IC90 (Plasmodium falciparum [6]): 301 nM
- IC99 (Plasmodium falciparum [6]): 0.531 µM
- IC90 (Plasmodium falciparum [2]): 18.6 nM
- IC90 (Plasmodium falciparum [32]): 153 nM
- IC50 (Hemozoin): 1.91 equiv
- Activity (Plasmodium falciparum [33]): 100%
- ED100 [13]: 16 mg/kg/day
- Activity (Plasmodium falciparum [34]): 100%
- ED100 (Plasmodium vinckei): >100 mg/kg/day
- IC50 (HeLa): 8540 nM

Structure (SMILES): C[C@@H]1CC[C@H]2[C@@H](C)C(N3CCS(=O)(=O)CC3)O[C@@H]3O[C@]4(C)CC[C@@H]1[C@]32OO4 (stereo not given in full)
- ED50 (Plasmodium yoelii): 3.9 mg/kg
- ED50 (Plasmodium berghei [35]): 1.5 mg/kg
- logP [36]: 2.49
- EC50 (Plasmodium falciparum [37]): 0.14 nM
- EC90 (Plasmodium falciparum [37]): 2.55 nM

Structure (SMILES): C[C@@H]1CC[C@H]2[C@@H](C)C(=O)O[C@@H]3O[C@@]4(C)CC[C@@H]1[C@]32OO4 [ARTEMISININ]
- IC50 (Plasmodium falciparum [4]): 8 nM
- CD50 [31]: 3 mg/kg/day
- CD90 [31]: 5 mg/kg/day
- ED50 [31]: 3 mg/kg/day
- ED90 [31]: 5 mg/kg/day
- CD50 [38]: 75 mg/kg/day
- CD90 [38]: >100 mg/kg/day
- ED50 ([38]; Plasmodium yoelii): 16 mg/kg/day
- ED90 ([38]; Plasmodium yoelii): 27 mg/kg/day
- IC50 (Plasmodium falciparum [39]): 23 nM
- IC50 (Plasmodium falciparum [22]): 9 nM
- IC90 (Plasmodium falciparum [22]): 12.8 nM
- IC50 (Plasmodium falciparum [8]): 7 nM
- IC50 (Plasmodium falciparum [2]): 6.7 nM
- IC90 (Plasmodium falciparum [2]): 11.5 nM
- IC50 (Plasmodium falciparum [32]): 13 nM
- IC90 (Plasmodium falciparum [32]): 17.4 nM
- IC50 (Hemozoin): 0.66 equiv
- IC50 (Plasmodium falciparum [3]): 5.32 nM
